According to the supplement of paper PMC10307832:

Experiments:
Assay in all cases: relative viability (nuclei count vs DMSO), 5 days (fraction); higher = more cells survive
[1] = compound: CCC1=CN=CN=C1N2CCN(CC2)CC3=NC4=C(N3)C=C(C=C4)C(F)(F)F + Nc1ncn([C@H]2C[C@H](O)[C@@H](CO)O2)c(=O)n1 [Decitabine] (partner 2 µM)
How it was run: (§1)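 Medians of duplicate plates are given as relative viability. That measure is the nuclei count in treated wells divided by the count in vehicle wells. Counts were taken on 4× images of lung cancer cell lines in 1536-well plates, 5 days after pin-tool dosing the day after seeding with one drug alone or a fixed anchor-drug dose plus five library-drug doses (not always all listed) in √10 steps.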

Mirin + Bortezomib = compound: N=C1NC(=O)/C(=C/c2ccc(O)cc2)S1 [Mirin] + CC(C)C[C@H](NC(=O)[C@H](Cc1ccccc1)NC(=O)c1cnccn1)B(O)O [Bortezomib] (partner 0.002 µM)
How it was run: as §1

[2] = compound: CCn1c(-c2nonc2N)nc2cnc(Oc3cccc(NC(=O)c4ccc(OCCN5CCOCC5)cc4)c3)cc21 + Cc1nc(Nc2ncc(C(=O)Nc3c(C)cccc3Cl)s2)cc(N2CCN(CCO)CC2)n1 [Dasatinib] (partner 0.075 µM)
How it was run: as §1

Mirin + Trametinib = compound: N=C1NC(=O)/C(=C/c2ccc(O)cc2)S1 [Mirin] + CC(=O)Nc1cccc(-n2c(=O)n(C3CC3)c(=O)c3c(Nc4ccc(I)cc4F)n(C)c(=O)c(C)c32)c1 [Trametinib] (partner 0.02 µM)
How it was run: as §1

Row | Cell Line | relative viability ([1]; first compound 0.04 µM) | relative viability ([1]; first compound 0.1265 µM) | relative viability ([1]; first compound 0.4 µM) | relative viability ([1]; first compound 1.265 µM) | relative viability ([1]; first compound 4 µM) | relative viability (Mirin + Bortezomib; first compound 0.25 µM) | relative viability (Mirin + Bortezomib; first compound 0.7906 µM) | relative viability (Mirin + Bortezomib; first compound 2.5 µM) | relative viability (Mirin + Bortezomib; first compound 7.906 µM) | relative viability (Mirin + Bortezomib; first compound 25 µM) | relative viability ([2]; first compound 0.04 µM) | relative viability ([2]; first compound 0.1265 µM) | relative viability ([2]; first compound 0.4 µM) | relative viability ([2]; first compound 1.265 µM) | relative viability ([2]; first compound 4 µM) | relative viability (Mirin + Trametinib; first compound 0.25 µM) | relative viability (Mirin + Trametinib; first compound 0.7906 µM) | relative viability (Mirin + Trametinib; first compound 2.5 µM) | relative viability (Mirin + Trametinib; first compound 7.906 µM) | relative viability (Mirin + Trametinib; first compound 25 µM)
1 | SW 1573 | 0.471 | 0.425 | 0.57 | 0.378 | 0.478 | 1.01 | 1.06 | 1.14 | 0.95 | 0.855 | 0.597 | 0.319 | 0.21 | 0.246 | 0.166 | 0.647 | 0.557 | 0.567 | 0.51 | 0.369
2 | LOU-NH91 | 0.797 | 0.79 | 0.806 | 0.841 | 0.816 | 0.417 | – | 0.47 | 0.455 | 0.503 | 0.524 | 0.454 | 0.312 | 0.273 | 0.304 | 0.789 | 0.809 | 0.795 | 0.823 | 1.01
3 | LXF-289 | 0.348 | 0.325 | 0.426 | 0.343 | 0.419 | 0.99 | 1.08 | 1.01 | 1.02 | 1.11 | 0.158 | 0.111 | 0.0564 | 0.0848 | 0.0678 | 0.694 | 0.726 | 0.635 | 0.665 | 0.828
4 | NCI-H1299 | – | – | – | – | – | 1.02 | 1.12 | 1.01 | 1.05 | 1.17 | – | – | – | – | – | – | – | – | – | –
5 | HARA | 0.424 | 0.505 | 0.533 | 0.508 | 0.512 | 1.09 | 1.11 | 1.17 | 1.1 | 1.17 | 0.243 | 0.213 | 0.124 | 0.0816 | 0.074 | 0.886 | – | 0.795 | 0.674 | 0.523
6 | LU99A | 0.906 | 0.877 | 0.785 | 0.837 | 0.843 | 1.07 | 0.93 | 1.17 | 1 | 0.968 | 0.573 | 0.467 | 0.352 | 0.367 | 0.388 | 0.515 | 0.496 | 0.56 | 0.395 | 0.55
7 | 201T | 0.823 | 0.813 | 0.879 | 0.869 | 0.819 | 1.12 | 1.12 | 1.2 | 1.18 | 1.23 | 0.644 | 0.682 | 0.443 | 0.588 | 0.506 | 0.739 | 0.74 | 0.77 | 0.796 | 0.857
8 | HCC-827 | 0.504 | 0.286 | 0.34 | 0.307 | 0.357 | 1.07 | 1.08 | 1.01 | 1.07 | 1.15 | 0.24 | 0.328 | 0.459 | 0.484 | 0.424 | 0.529 | 0.471 | 0.584 | 0.607 | 0.547
9 | NCI-H1666 | 0.746 | 0.733 | 0.699 | 0.65 | 0.719 | 0.883 | 0.873 | 0.976 | 0.513 | 0.479 | 0.788 | 0.617 | 0.442 | 0.28 | 0.278 | 0.909 | 0.764 | 0.77 | 0.607 | 0.772
